In ChEMBL document CHEMBL1641518, “Synthesis and biological evaluation of tubulysin D analogs related to stereoisomers of tubuvaline” (Bioorg Med Chem Lett, 2011):

How the values were obtained:
[1] = system: HL-60; test: Cytotoxicity against human HL60 cells after 72 hrs by MTT assay; type: functional, cell-based; conditions: HL-60, 72 h
[2] = system: HCT-116; test: Cytotoxicity against human HCT116 cells after 72 hrs by MTT assay; type: functional, cell-based; conditions: HCT-116, 72 h
[3] = system: A549; test: Cytotoxicity against human A549 cells after 72 hrs by MTT assay; type: functional, cell-based; conditions: A549, 72 h
[4] = system: MCF7; test: Cytotoxicity against human MCF7 cells after 72 hrs by MTT assay; type: functional, cell-based; conditions: MCF7, 72 h
[5] = biological target: Tubulin (Sus scrofa, UniProt P02554+P02550); test: Inhibition of porcine brain tubulin polymerization by microtubule assembly assay

SMILES | IC50 [1] [nM] | IC50 [2] [nM] | IC50 [3] [nM] | IC50 [4] [nM] | IC50 [5] [nM]
CC[C@]1(O)C[C@@H]2CN(CCc3c([nH]c4ccccc34)[C@@](C(=O)OC)(c3cc4c(cc3OC)N(C)[C@H]3[C@@](O)(C(=O)OC)[C@H](OC(C)=O)[C@]5(CC)C=CCN6CC[C@]43[C@@H]65)C2)C1 [VINBLASTINE] | 1 | 27 | 17 | 0.79 | –
CC[C@H](C)[C@H](NC(=O)[C@H]1CCCCN1C)C(=O)N[C@H](C[C@H](OC(C)=O)c1nc(C(=O)N[C@@H](Cc2ccccc2)C[C@H](C)C(=O)O)cs1)C(C)C [11-EPI-TUBULYSIN D] | 3.1 | 13 | 43 | 280 | 1400
CC[C@H](C)[C@H](NC(=O)[C@H]1CCCCN1C)C(=O)N[C@@H](C[C@@H](OC(C)=O)c1nc(C(=O)N[C@@H](Cc2ccccc2)C[C@H](C)C(=O)O)cs1)C(C)C [13-EPI-TUBULYSIN D] | 98 | 920 | 1200 | 240 | 1700
CC[C@H](C)[C@H](NC(=O)[C@H]1CCCCN1C)C(=O)N(COC(=O)CC(C)C)[C@H](C[C@@H](OC(C)=O)c1nc(C(=O)N[C@@H](Cc2ccccc2)C[C@H](C)C(=O)O)cs1)C(C)C [TUBULYSIN D] | 0.0047 | 0.0031 | 0.013 | 0.67 | 1700
CC[C@H](C)[C@H](NC(=O)[C@H]1CCCCN1C)C(=O)N[C@@H](C[C@H](OC(C)=O)c1nc(C(=O)N[C@@H](Cc2ccccc2)C[C@H](C)C(=O)O)cs1)C(C)C | 3600 | > 10000 | > 10000 | > 10000 | 6300
